Reference: patent US8877733B2, “1′-substituted pyrimidine N-nucleoside analogs for antiviral treatment” (Gilead Sciences, Inc., priority 2011, dated 2014)
Where two headings read alike, the source gives them in different places. Each block holds one compound with its values, some of them ahead of it.

Columns and labels:
HCV Δ21 NS5b polymerase = HCV Δ21 NS5b polymerase (Hepatitis C virus genotype 1b (isolate Con1) (HCV), UniProt Q9WMX2); assay: HCV IC50 determination, NS5b polymerase assay; assay type: biochemical; conditions: wild type or S282T mutant enzyme not specified, nucleoside triphosphates
Method: Assay Protocol: Either wild type or S282T (Migliaccio, et al., J. Biol. Chem. 2003, 49164-49170; Klumpp, et al., J. Biol. Chem. 2006, 3793-3799) mutant polymerase enzyme was used in this assay. NS5b polymerase assay (40 μL) was assembled by adding 28 μL polymerase mixture (final concentration: 50 mM Tris-HCl at pH 7.5, 10 mM KCl, 5 mM MgCl2, 1 mM DTT, 10 mM EDTA, 4 ng/μL of RNA template, and 75 nM HCV Δ21 NS5b polymerase) to assay plates followed by 4 μL of compound dilution. The polymerase and compound were pre-incubated at 35° C. for 10 minute before the addition of 8 μL of nucleotide substrate mixture (33P-[…] competing nucleotide at KM and 0.5 mM of the remaining three nucleotides). The assay plates were covered and incubated at 35° C. for 90 min. Reactions were then filtered through 96-well DEAE-81 filter plates via vacuum. The filter plates were then washed under vacuum with multiple volumes of 0.125 M NaHPO4, water, and ethanol to remove unincorporated label. Plates were then counted on TopCount to assess the level of product synthesis over background controls. The IC50 value is determined using Prism fitting program.

RSV strain A2 = assay: RSV-induced cytopathic effect in Hep2 cells, 384 well method; assay type: cell-based; conditions: human respiratory syncytial virus, HEp-2, 120 h
Method: Antiviral activity against RSV is determined using an in vitro cytoprotection assay in Hep2 cells. […] The method used is similar to methods previously described in published literature (Chapman et al., Antimicrob Agents Chemother. 2007, 51(9):3346-53.)
Compounds were also tested for antiviral activity against RSV in Hep2 cells using a 384 well format. Compounds were diluted in DMSO using a 10-step serial dilution in 3-fold increments via automation in 4 adjacent replicates each. Eight compounds were tested per dilution plate. 0.4 uL of diluted compounds were then stamped via Biomek into 384-well plates (Nunc 142761 or 164730 w/lid 264616) containing 20 μL of media (Mediatech Inc. MEM supplemented with Glutamine, 10% FBS and Pen/Strep). DMSO and a suitable positive control compound, such as 80 μM GS-329467 or 10 μM 427346 was used for the 100% and 0% cell killing controls, respectively.
Hep2 cells (1.0×10^5 cells/mil) were prepared as above in batch to at least 40 mls excess of the number of sample plates (8 mls cell mix per plate) and infected with vendor supplied (ABI) RSV strain A2 to arrive at an MOI of 1:1000 (virus:cell #) or 1:3000 (vol virus: cell vol). Immediately after addition of virus, the RSV infected Hep2 cell suspension was added to each stamped 384-well plate at 20 μl per well using a uFlow dispenser, giving a final volume of 40 μL/well, each with 2000 infected cells. The plates were then incubated for 5 days at 37° C. and 5% CO2. Following incubation, the plates were equilibrated to room temperature in a biosafety cabinet hood for 1.5 hrs and 40 μL of Cell-Titer Glo viability reagent (Promega) was added to each well via uFlow. Following a10-20 minute incubation, the plates were read using an EnVision or Victor Luminescence plate reader (Perkin-Elmer). The data was then uploaded and analyzed on the Bioinformatics portal under the RSV Cell Infectivity and 8-plate EC50-Hep2-384 or 8-plate EC50-Hep2-Envision protocols.

HCV replicon cells = assay: HCV EC50 determination, replicon cells luciferase assay; assay type: cell-based; conditions: Hepatitis C virus
Method: Replicon cells were seeded in 96-well plates at a density of 8×10^3 cells per well in 100 μL of culture medium, excluding Geneticin. Compound was serially diluted in 100% DMSO and then added to the cells at a 1:200 dilution, achieving a final concentration of 0.5% DMSO and a total volume of 200 μL. Plates were incubated at 37° C. for 3 days, after which culture medium was removed and cells were lysed in lysis buffer provided by Promega's luciferase assay system. Following the manufacturer's instruction, 100 μL of luciferase substrate was added to the lysed cells and luciferase activity was measured in a TopCount luminometer.

[1] = system: mitochondrial protein levels of Complexes II and IV; assay: Mitochondrial Biogenesis Assay after 5-day treatment in PC-3 cells; assay type: cell-based; conditions: human
Method: (§1) Three-fold serial dilutions of compounds were prepared in duplicate in 96-well plates starting at a concentration close to the CC50 value of the compound after 5-day treatment. For compounds with CC50≧100 μM, the starting concentration was 100 μM. PC-3 cells were plated at a density of 2.5×10^3 cells per well in a final assay volume of 100 μL per well with a constant amount of DMSO equal to 0.5%. After 5-day incubation, the cells were analyzed with the MitoSciences MitoBiogenesis™ In-Cell ELISA Kit (catalog #MS642), which uses quantitative immunocytochemistry to measure protein levels of Complexes II and IV in cultured cells. Cells were fixed in a 96-well plate and target proteins were detected with highly-specific, well-characterized monoclonal antibodies. The protein levels were quantified with IRDyee-labeled Secondary Antibodies. IR imaging and quantitation was performed using a LI-COR® Odyssey instrument. All ratios were expressed as a percentage of the 0.5% DMSO control. In cases where cell viability was severely affected, the data for mitochondrial biogenesis was not included for analysis due to significant errors associated with low signals. Chloramphenicol was used as the positive control for the assay.

[2] = system: protein levels of Complexes II and IV in PC-3 cells; assay: as above; assay type: cell-based; conditions: PC-3 cells, 5-day treatment; maximum concentration tested 100 μM
Method: as §1

[3] = Hep2 cells, RSV A2, 5 days, Cell-Titer Glo, 384 well format, read-out: EC50

SMILES: C[C@@]1(O)[C@H](O)[C@@H](COP(=O)(O)OP(=O)(O)OP(=O)(O)O)O[C@@]1(C#N)n1ccc(=O)[nH]c1=O [Compound 27]
IC50 (HCV Δ21 NS5b polymerase): 27 µM

SMILES: CC(C)OC(=O)[C@H](C)N[P@](=O)(OC[C@H]1O[C@@](C#N)(n2ccc(N)nc2=O)[C@](C)(O)[C@@H]1OC(=O)C(C)C)Oc1ccccc1 [Compound 35]
EC50 (RSV strain A2): 200 µM

SMILES: C[C@@H](O)[C@H]1O[C@@](C#N)(n2ccc(=O)[nH]c2=O)[C@@H](O)[C@@H]1O [Compound 10]
EC50 (RSV strain A2; [3]): 200 µM

SMILES: CC(C)OC(=O)[C@H](C)NP(=O)(OC[C@H]1O[C@@](C#N)(n2ccc(=O)[nH]c2=O)[C@](C)(O)[C@@H]1O)Oc1ccccc1 (stereo partly drawn) [Compound 29]
EC50 (HCV replicon cells; 72 h): 8.2 µM

SMILES: C[C@@]1(O)[C@H](O)[C@@H](COP(=O)(O)OP(=O)(O)OP(=O)(O)O)O[C@@]1(C#N)n1ccc(N)nc1=O [Compound 28]
IC50 (HCV Δ21 NS5b polymerase): 18 µM

SMILES: CC(C)OC(=O)[C@H](C)N[P@](=O)(OC[C@H]1O[C@@](C#N)(n2ccc(N)nc2=O)[C@](C)(O)[C@@H]1O)Oc1ccccc1 [Compound 30]
EC50 (RSV strain A2): 200 µM
CC50 at 5 days ([1]; mitochondrial toxicity, PC-3 cells, 5-day treatment, maximum concentration tested 100 μM, read-out: CC50): > 100 µM
50% inhibition of mitochondrial protein levels [2]: > 100 µM
EC50 (HCV replicon cells; 72 h): 2.6 µM
EC50 (HCV replicon cells; read-out: EC50 (antiviral activity)): 2.6 µM
EC50 (HCV replicon cells; read-out: HCV EC50): 2.6 µM

SMILES: C[C@@]1(O)[C@H](O)[C@@H](CO)O[C@H]1n1ccc(N)nc1=O [Compound A, reference compound]
CC50 at 5 days [1]: 43 µM
EC50 (HCV replicon cells; HCV replicon, read-out: EC50 (antiviral activity)): 2.5 µM
EC50 (HCV replicon cells; replicon, comparison table R6=H vs R6=CN, read-out: HCV EC50): 2.5 µM

SMILES: O=C(N[C@H](CO)[C@H](O)c1ccc([N+](=O)[O-])cc1)C(Cl)Cl [Chloramphenicol, reference compound]
CC50 at 5 days [1]: 2.5 µM

Continued, values first:

EC50 (RSV strain A2; [3]): 200 µM
SMILES: CO[C@@H]1[C@H](O)[C@@H](CO)O[C@@]1(C#N)n1ccc(=O)[nH]c1=O [Compound 12]

EC50 (RSV strain A2; [3]): 200 µM
SMILES: C[C@@H](O)[C@H]1O[C@@](C#N)(n2ccc(N)nc2=O)[C@@H](O)[C@@H]1O [Compound 11]

EC50 (RSV strain A2; [3]): 10.9 µM
SMILES: N#C[C@@]1(n2ccc(=O)[nH]c2=O)O[C@H](CO)[C@@H](O)[C@H]1O [Compound 3]

EC50 (RSV strain A2; [3]): 200 µM
SMILES: C[C@H]1[C@H](O)[C@@H](CO)O[C@@]1(C#N)n1ccc(=O)[nH]c1=O [Compound 15]

EC50 (RSV strain A2; [3]): 200 µM
SMILES: CO[C@@H]1[C@H](O)[C@@H](CO)O[C@@]1(C#N)n1ccc(N)nc1=O [Compound 13]

EC50 (RSV strain A2; [3]): 11.3 µM
SMILES: N#C[C@@]1(n2ccc(N)nc2=O)O[C@H](CO)[C@@H](O)[C@H]1O [Compound 4]
